Measured values from PMC9820316, “Novel Arylpiperazine Derivatives of Salicylamide with α1-Adrenolytic Properties Showed Antiarrhythmic and Hypotensive Properties in Rats” (International Journal of Molecular Sciences, 2022).
Marks after values point to notes of the source that are not given here.

Columns and labels:
α1-adrenergic receptors = test: α1-adrenoceptor radioligand binding assay ([3H]-prazosin, rat cortex); conditions: rat cortex tissue, mean ± SEM
Procedure, shortened: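 Rat cerebral cortex membranes in 50 mM Tris-HCl pH 7.6, with 7–8 compound concentrations in duplicate. Nonspecific binding defined by 10 μM phentolamine for [3H]-prazosin (α1) or 10 μM clonidine for [3H]-clonidine (α2). Filtration and scintillation counting; Ki calculated.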

normal ECG in rats = test: Effect on a normal electrocardiogram in rats; assay type: in vivo, rat; conditions: 5 mg/kg iv; for HR—heart rate / PQ interval / QRS complex / QTc (Bazzett's formula): mean ± SD; for PQ interval / QRS complex / QTc (Bazzett's formula): in ms (unit assumed)
Protocol: The procedure was performed to exclude the negative effects of the tested compounds on the normal ECG, according to the method described earlier. […] Firstly, animals were anesthetized with thiopental (75 mg/kg ip). […] The influence on PQ, QTc interval, QRS complex, and heart rate was evaluated. The Bazzett’s formula: QTc = QT/√RR was used to calculate QTc. All the studied compounds were administered at a dose of 5 mg/kg.

[1] = system: adrenaline-induced arrhythmia model in rats; test: Prophylactic antiarrhythmic activity in adrenaline-induced arrhythmia; assay type: in vivo, rat; conditions: for Blocks / Bradycardia / Extrasystoles / Mortality: number of animals with event
[2] = system: adrenaline-induced arrhythmia model in rats; test: Therapeutic antiarrhythmic activity in adrenaline-induced arrhythmia; conditions: 5 mg/kg iv immediately after adrenaline 20 µg/kg; number of animals with event
[3] = system: pressor response to methoxamine in rats; test: Influence on blood vasopressor response to methoxamine in rats; assay type: in vivo, rat; conditions: 5 mg/kg iv, methoxamine 150 μg/kg before and 5 min after compound
Procedure, shortened: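 Anaesthetised (thiopental 75 mg/kg ip) normotensive Wistar rats, carotid artery cannulated. Pressor response to methoxamine (150 µg/kg, iv) recorded before and 5 min after test compound, given at its lowest hypotensive dose, after 15-min stabilisation.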

[4] = system: aconitine-induced arrhythmia model in rats; test: Prophylactic antiarrhythmic activity in aconitine-induced arrhythmia; assay type: in vivo, rat; conditions: 5 mg/kg iv 15 min before aconitine 20 μg/kg; number of animals with event
normotensive rats = test: Influence on blood pressure in the normotensive rats; assay type: in vivo, rat; conditions: for DBP—diastolic blood pressure / SBP—systolic blood pressure: mean ± SD
Protocol: The experiment was performed according to the method described earlier. Normotensive Wistar rats were anesthetized with thiopental (75 mg/kg ip). The right carotid artery was cannulated with a polyethylene tube filled with heparin solution, using a Datamax apparatus (Columbus Instruments, Columbus, OH, USA). After 15 min of the stabilization period, the studied compounds were administered iv, and their effect on systolic and diastolic blood pressure was evaluated (Figure 4A).

α2-adrenergic receptors = test: α2-adrenoceptor radioligand binding assay ([3H]-clonidine, rat cortex); conditions: rat cortex tissue, mean ± SEM, n.a. = did not bind at 10^−5 M
Protocol: The α1- and α2-adrenoceptor radioligand binding assays were performed on the rat cerebral cortex using previously described methods. […] The brains were homogenized using the ULTRA-TURRAX homogenizer in 10 mL of an ice-cold 50 mM Tris-HCl buffer (pH 7.6). The homogenates were centrifuged at 20,000× g for 20 min (0–4 °C). Subsequently, the cell pellet was resuspended in the Tris–HCl buffer and centrifuged again. Radioligand binding assays were carried out in plates (MultiScreen/Millipore). The final incubation mixture, with a volume of 300 μL, consisted of 240 μL of the tissue suspension, 30 μL of the radioligand solution, and 30 μL of the buffer containing 7–8 concentrations of the studied compounds. In order to measure the unspecific binding, 10 μM phentolamine (for [^3H]-prazosin) or 10 μM clonidine (for [^3H]-clonidine) were utilized. The incubation was completed by rapid filtration through Whatman GF/C filters using a vacuum manifold (Millipore). The filters were then washed twice with the assay buffer and placed in scintillation vials with a liquid scintillation cocktail. Radioactivity was measured in a WALLAC 1409 DSA liquid scintillation counter (Perkin Elmer, USA). All the assays were performed in duplicates, and the inhibitory constants (Ki) were calculated.

[5] = 0 min (prior to administration)
[6] = 0.25 mg/kg iv 15 min before adrenaline 20 μg/kg
[7] = 0.5 mg/kg iv 15 min before adrenaline 20 μg/kg
[8] = 1 mg/kg iv 15 min before adrenaline 20 μg/kg
[9] = 2.5 mg/kg iv, 0 min (before administration)
[10] = 5.0 mg/kg iv, 0 min (before administration)

## Cl.NC(=O)c1ccccc1OCCCCCCN1CCN(c2cccc(Cl)c2)CC1 [JJGW03, 2-{6-[4-(3-chlorophenyl)piperazin-1-ylo]hexoxy}benzamide hydrochloride]
α1-adrenergic receptors
  Adrenergic Receptors—pKi α1: 8.11 ± 0.01
Normal ECG in rats
  effect on the heart rate during the ECG recording: did not affect the heart rate
Normal ECG in rats; [5]
  HR—heart rate: 286.6 ± 45.7
  PQ interval: 41.6 ± 2.3
  QRS complex: 39.6 ± 4.7
  QTc (Bazzett's formula): 177.6 ± 12.0
Normal ECG in rats; 5 min
  HR—heart rate: 289.1 ± 20.2
  PQ interval: 41.4 ± 1.6
  QRS complex: 39.3 ± 3.9
  QTc (Bazzett's formula): 188.7 ± 16.3
Normal ECG in rats; 10 min
  HR—heart rate: 279.9 ± 15.7
  PQ interval: 40.2 ± 1.7
  QRS complex: 40.8 ± 7.1
  QTc (Bazzett's formula): 174.8 ± 7.3
Normal ECG in rats; 15 min
  HR—heart rate: 271.9 ± 18.2
  PQ interval: 40.0 ± 0.5
  QRS complex: 40.4 ± 5.2
  QTc (Bazzett's formula): 178.1 ± 15.0
[1]; [6]
  Blocks: 5/5
  Bradycardia: 5/5
  Extrasystoles: 5/5
  Mortality: 4/5
[1]; [7]
  Blocks: 5/5
  Bradycardia: 4/5
  Extrasystoles: 4/5
  Mortality: 4/5
[1]; [8]
  Blocks: 4/5
  Bradycardia: 1/5
  Extrasystoles: 4/5
  Mortality: 0/5
[1]; prophylactic, iv 15 min before adrenaline 20 μg/kg, confidence limits in brackets (Litchfield and Wilcoxon)
  ED50: 0.36 (0.08–1.56) mg/kg
[2]
  Blocks: 3/5
  Bradycardia: 1/5
  Mortality: 0/5
[3]
  attenuation of the methoxamine pressor response: 99%
[4]
  Blocks: 6/6
  Bradycardia: 6/6
  Extrasystoles: 6/6
  Fibrillations: 6/6
  Mortality: 6/6
Normotensive rats; [9]
  DBP—diastolic blood pressure: 89.3 ± 15.6 mmHg
  SBP—systolic blood pressure: 123.8 ± 17.4 mmHg
Normotensive rats; 2.5 mg/kg iv, 5 min
  DBP—diastolic blood pressure: 83.3 ± 12.8 mmHg
  SBP—systolic blood pressure: 112.5 ± 13.8 mmHg
Normotensive rats; 2.5 mg/kg iv, 10 min
  DBP—diastolic blood pressure: 84.8 ± 14.7 mmHg
  SBP—systolic blood pressure: 109.8 ± 13.5 mmHg
Normotensive rats; 2.5 mg/kg iv, 20 min
  DBP—diastolic blood pressure: 86.0 ± 15.8 mmHg
  SBP—systolic blood pressure: 108.8 ± 15.6 mmHg
Normotensive rats; 2.5 mg/kg iv, 30 min
  DBP—diastolic blood pressure: 85.5 ± 14.7 mmHg
  SBP—systolic blood pressure: 111.8 ± 20.5 mmHg
Normotensive rats; 2.5 mg/kg iv, 40 min
  DBP—diastolic blood pressure: 83.7 ± 15.6 mmHg
  SBP—systolic blood pressure: 111.2 ± 22.3 mmHg
Normotensive rats; 2.5 mg/kg iv, 50 min
  DBP—diastolic blood pressure: 81.2 ± 15.0 mmHg
  SBP—systolic blood pressure: 107.7 ± 19.7 mmHg
Normotensive rats; 2.5 mg/kg iv, 60 min
  DBP—diastolic blood pressure: 79.5 ± 15.4 mmHg
  SBP—systolic blood pressure: 109.2 ± 21.9 mmHg
Normotensive rats; [10]
  DBP—diastolic blood pressure: 101.5 ± 6.1 mmHg
  SBP—systolic blood pressure: 128.5 ± 8.6 mmHg
Normotensive rats; 5 mg/kg iv, 5th min after administration
  decrease of the diastolic blood pressure: 18%
Normotensive rats; 5 mg/kg iv, 10th min after administration
  decrease of the diastolic blood pressure: 20%
Normotensive rats; 5.0 mg/kg iv, 5 min
  DBP—diastolic blood pressure: 83.2 ± 5.0 ^a mmHg
  SBP—systolic blood pressure: 108.0 ± 6.6 ^d mmHg
Normotensive rats; 5.0 mg/kg iv, 10 min
  DBP—diastolic blood pressure: 81.2 ± 4.0 ^a mmHg
  SBP—systolic blood pressure: 104.3 ± 6.3 ^d mmHg
Normotensive rats; 5.0 mg/kg iv, 20 min
  DBP—diastolic blood pressure: 82.0 ± 4.2 mmHg
  SBP—systolic blood pressure: 101.3 ± 4.5 ^d mmHg
Normotensive rats; 5.0 mg/kg iv, 30 min
  DBP—diastolic blood pressure: 83.5 ± 4.3 mmHg
  SBP—systolic blood pressure: 102.3 ± 6.9 ^d mmHg
Normotensive rats; 5.0 mg/kg iv, 40 min
  DBP—diastolic blood pressure: 85.5 ± 5.8 mmHg
  SBP—systolic blood pressure: 104.3 ± 3.9^b mmHg
Normotensive rats; 5.0 mg/kg iv, 50 min
  DBP—diastolic blood pressure: 86.7 ± 6.0 mmHg
  SBP—systolic blood pressure: 106.0 ± 7.9 ^c mmHg
Normotensive rats; 5.0 mg/kg iv, 60 min
  DBP—diastolic blood pressure: 87.5 ± 6.3 mmHg
  SBP—systolic blood pressure: 107.3 ± 6.1 ^b mmHg
Normotensive rats; 5 mg/kg iv, from the 5th to 60th min after administration
  decrease of the systolic blood pressure: 16–21%
α2-adrenergic receptors
  Adrenergic Receptors—pKi α2: 5.76 ± 0.02
